Where a name gives a salt, the structure may show the parent alone.

Sequence of GST tagged IRAK4 (Q9NWZ3 whole entry): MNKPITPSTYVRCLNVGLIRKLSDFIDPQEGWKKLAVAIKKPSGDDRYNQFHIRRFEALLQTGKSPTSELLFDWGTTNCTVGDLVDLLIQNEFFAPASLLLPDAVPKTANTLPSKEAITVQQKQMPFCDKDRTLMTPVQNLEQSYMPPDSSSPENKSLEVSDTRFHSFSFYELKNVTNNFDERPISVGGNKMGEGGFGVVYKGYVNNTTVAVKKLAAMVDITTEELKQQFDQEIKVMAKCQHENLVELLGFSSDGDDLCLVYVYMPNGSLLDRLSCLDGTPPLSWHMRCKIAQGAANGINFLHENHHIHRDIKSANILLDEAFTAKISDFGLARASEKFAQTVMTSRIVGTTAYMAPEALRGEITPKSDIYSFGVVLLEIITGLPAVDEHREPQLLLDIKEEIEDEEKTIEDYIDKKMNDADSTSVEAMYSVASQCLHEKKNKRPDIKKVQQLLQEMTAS

This assay concerns the target GST tagged IRAK4 (Homo sapiens (Human), UniProt Q9NWZ3). Kind of assay: IRAK4 Kinase Assay (IMAP fluorescence polarization). The class given is biochemical. The note with it: 0.5 nM GST tagged IRAK4, 100 μM ATP, 30 minutes at 25° C. In outline:
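Phosphorylation of a fluorescent peptide (100 nM) was detected by IMAP nanoparticle binding as increased fluorescence polarization. The enzyme was GST-tagged IRAK4 at 0.5 nM, with 100 μM ATP, 1 mM MgCl2 and Tris-HCl pH 7.2. ATP-initiated reactions ran 30 minutes at 25° C.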
Take `N[C@@H]1[C@H](Nc2ncc3ccc(C(=O)Nc4ccccc4Cl)n3n2)CCCC1(F)F` [Example 138, 2-{[(1R,2R)-2-amino-3,3-difluorocyclohexyl]amino}-N-(2-chlorophenyl)pyrrolo[2,1-f][1,2,4]triazine-7-carboxamide trifluoroacetate]: the IC50 was found to be 1640 nM.

For `N#Cc1sccc1NC(=O)c1ccc2cnc(N3CCC[C@H](N)C3)nn12` [Example 152, 2-[(3S)-3-aminopiperidin-1-yl]-N-(2-cyanothiophen-3-yl)pyrrolo[2,1-f][1,2,4]triazine-7-carboxamide trifluoroacetate], the midpoint of inhibition, the IC50, lay at 7 nM.

Compound `O=C(Nc1ccccc1C(F)(F)F)c1ccc2cnc(N3C[C@H]4CC[C@@H]3CN4)nn12` (single isomer, unassigned) [Example 68, 2-[(1S,4S)- or (1R,4R)-2,5-diazabicyclo[2.2.2]oct-2-yl]-N-[2-(trifluoromethyl)phenyl]-pyrrolo[2,1-f][1,2,4]triazine-7-carboxamide trifluoroacetate] gave an IC50 of 218 nM.

Compound `Cn1cc(NC(=O)c2ccc3cnc(N[C@H]4CCCCNC4)nn23)c(C(F)F)n1` (single isomer, unassigned) [Example 91, 2-[(3S)- or (3R)-azepan-3-ylamino]-N-[3-(difluoromethyl)-1-methyl-1H-pyrazol-4-yl]pyrrolo[2,1-f][1,2,4]triazine-7-carboxamide trifluoroacetate] displayed a half-maximal inhibitory concentration (IC50) of 1 nM.

Regarding `Cn1cc(NC(=O)c2ccc3cnc(N4C[C@@H](N)C[C@H](F)C4)nn23)c(C(F)F)n1` [Example 157, 2-[(3S,5S)-3-amino-5-fluoropiperidin-1-yl]-N-[3-(difluoromethyl)-1-methyl-1H-pyrazol-4-yl]pyrrolo[2,1-f][1,2,4]triazine-7-carboxamide trifluoroacetate], it took 0.8 nM to reach half-maximal inhibition (IC50).

In the case of `O=C(Nc1ccsc1Cl)c1ccc2cnc(N3C[C@H]4CC[C@@H]3CN4)nn12` (single isomer, unassigned) [Example 54, N-(2-chlorothiophen-3-yl)-2-[(1S,4S)- or (1R,4R)-2,5-diazabicyclo[2.2.2]oct-2-yl]pyrrolo[2,1-f][1,2,4]triazine-7-carboxamide trifluoroacetate], inhibition was half-maximal at 819 nM (IC50).

The compound `Cn1cc(NC(=O)c2ccc3cnc(N[C@@H]4CCCC[C@@H]4O)nn23)c(C#N)n1` [Example 122, N-(3-cyano-1-methyl-1H-pyrazol-4-yl)-2-{[(1R,2S)-2-hydroxycyclohexyl]amino}-pyrrolo[2,1-f][1,2,4]triazine-7-carboxamide trifluoroacetate] returned a half-inhibitory concentration (IC50) of 20 nM.

Consider `Cn1cc(NC(=O)c2ccc3cnc(N4CC5CCC(C4)N5)nn23)c(C(F)F)n1` [Example 83, 2-(3,8-diazabicyclo[3.2.1]oct-3-yl)-N-[3-[difluoromethyl)-1-methyl-1H-pyrazol-4-yl]pyrrolo[2,1-f][1,2,4]triazine-7-carboxamide trifluoroacetate], for which inhibition was half-maximal at 2 nM (IC50).

The compound `Cn1cc(NC(=O)c2ccc3cnc(N4C[C@@H](N)C[C@H](F)C4)nn23)c(C(F)(F)F)n1` [Example 150, 2-[(3S,5S)-3-amino-5-fluoropiperidin-1-yl]-N-[1-methyl-3-(trifluoromethyl)-1H-pyrazol-4-yl]pyrrolo[2,1-f][1,2,4]triazine-7-carboxamide trifluoroacetate] gave an IC50 of 10 nM.

For the compound `Cn1cc(NC(=O)c2ccc3cnc(N[C@@H]4CCCC[C@@H]4N)nn23)c(C(F)F)n1` [Example 1, 2-{[(1R,2S)-2-Aminocyclohexyl]amino}-N-[3-(difluoromethyl)-1-methyl-1H-pyrazol-4-yl]pyrrolo[2,1-f][1,2,4]triazine-7-carboxamide], the IC50 is 0.5 nM.

`Cn1cc(NC(=O)c2ccc3cnc(N4C[C@@H](N)C[C@@H](F)C4)nn23)c(C(F)(F)F)n1` [Example 148, 2-[(3S,5R)-3-amino-5-fluoropiperidin-1-yl]-N-[1-methyl-3-(trifluoromethyl)-1H-pyrazol-4-yl]pyrrolo[2,1-f][1,2,4]triazine-7-carboxamide] showed a half-inhibitory concentration (IC50) of 20 nM.

`N#Cc1sccc1NC(=O)c1ccc2cnc(N3CCC[C@@H](N)C3)nn12` [Example 141, 2-[(3R)-3-aminopiperidin-1-yl]-N-(2-cyanothiophen-3-yl)pyrrolo[2,1-f][1,2,4]triazine-7-carboxamide trifluoroacetate] came in with a half-maximal inhibitory concentration (IC50) of 26 nM.

Consider `Cn1cc(NC(=O)c2ccc3cnc(N4CCNCC4)nn23)c(C(F)F)n1` [Example 11, N-[3-(difluoromethyl)-1-methyl-1H-pyrazol-4-yl]-2-piperazin-1-ylpyrrolo[2,1-f][1,2,4]triazine-7-carboxamide trifluoroacetate], for which the 50% inhibitory concentration (IC50) was determined as 3 nM.

`Cn1cc(NC(=O)c2ccc3cnc(N4CCC[C@@H](N)C4)nn23)c(C(F)F)n1` [Example 18, 2-[(3R)-3-aminopiperidin-1-yl]-N-[3-(difluoromethyl)-1-methyl-1H-pyrazol-4-yl]pyrrolo[2,1-f][1,2,4]triazine-7-carboxamide trifluoroacetate] had an IC50 of 0.5 nM.

The compound `Cn1cc(NC(=O)c2ccc3cnc(N[C@@H]4CCCC[C@@H]4O)nn23)c(C(F)(F)F)n1` [Example 3, 2-{[(1R,2S)-2-hydroxycyclohexyl]amino}-N-[1-methyl-3-(trifluoromethyl)-1H-pyrazol-4-yl]pyrrolo[2,1-f][1,2,4]triazine-7-carboxamide trifluoroacetate] yielded a half-maximal inhibitory concentration (IC50) of 322 nM.

For `N#Cc1cscc1NC(=O)c1ccc2cnc(N3CCC[C@H](N)C3)nn12` [Example 143, 2-[(3S)-3-aminopiperidin-1-yl]-N-(4-cyanothiophen-3-yl)pyrrolo[2,1-f][1,2,4]triazine-7-carboxamide trifluoroacetate], the IC50 is 9 nM.

`Cn1cc(NC(=O)c2ccc3cnc(N4CCCNCC4)nn23)c(C#N)n1` [Example 34, N-(3-cyano-1-methyl-1H-pyrazol-4-yl)-2-(1,4-diazepan-1-yl)pyrrolo[2,1-f][1,2,4]triazine-7-carboxamide trifluoroacetate] came in with a half-maximal inhibitory concentration (IC50) of 352 nM.

Turning to `Cn1cc(NC(=O)c2ccc3cnc(N[C@@H]4CNC[C@@H](F)C4)nn23)c(C(F)F)n1` [Example 164, N-[3-(difluoromethyl)-1-methyl-1H-pyrazol-4-yl]-2-{[(3S,5S)-5-fluoropiperidin-3-yl]amino}pyrrolo[2,1-f][1,2,4]triazine-7-carboxamide], the concentration for half-maximal inhibition (IC50) was determined as 0.5 nM.

Consider `Cn1cc(NC(=O)c2ccc3cnc(NC4CCCCNC4)nn23)c(C(F)F)n1` (stereo not drawn) [Example 19, 2-(azepan-3-ylamino)-N-[3-(difluoromethyl)-1-methyl-1H-pyrazol-4-yl]pyrrolo[2,1-f][1,2,4]triazine-7-carboxamide trifluoroacetate], for which the midpoint of inhibition, the IC50, lay at 1 nM.

`Cn1cc(NC(=O)c2ccc3cnc(N4C[C@@H]5CNC[C@H]4C5)nn23)c(C#N)n1` (single isomer, unassigned) [Example 135, N-(3-cyano-1-methyl-1H-pyrazol-4-yl)-2-[(1R,5S)- or (1S,5R)-3,6-diazabicyclo[3.2.1]oct-6-yl]pyrrolo[2,1-f][1,2,4]triazine-7-carboxamide] displayed an IC50 of 867 nM.

With `N[C@@H]1[C@H](Nc2ncc3ccc(C(=O)Nc4ccsc4Cl)n3n2)CCCC1(F)F` [Example 97, 2-{[(1R,2R)-2-amino-3,3-difluorocyclohexyl]amino}-N-(2-chlorothiophen-3-yl)pyrrolo[2,1-f][1,2,4]triazine-7-carboxamide trifluoroacetate], the concentration for half-maximal inhibition (IC50) stood at 1910 nM.

Values taken from patent US10329295B2, “Pyrrolotriazine inhibitors of IRAK4 activity” (MERCK SHARP & DOHME CORP., priority 2015, dated 2019).
